Experimental findings from the Kinase Knowledgebase extract (Sharma et al. 2016) are described below.

Where only a bound is given, the exact number is not on record here.

The target of the assay is CDK2 (UniProt P24941). The experiment in a line: Enzyme Assay.

A word on the IC50: it is the concentration needed to halve the response being measured. A low value points to greater potency in that assay.

As for `CC(C)n1cnc2c(NCc3ccc(C4C=CC=CC4=S)cc3)nc(N(CCO)CCO)nc21` (stereo not given), the IC50 was found to be 600 nM. Regarding `COc1ccc(CNc2nc(NCCCC#N)nc3c2ncn3C(C)C)cc1`, the IC50 was 1000 nM. `COc1ccc(CNc2nc(NCC(O)c3c[nH]c4ccccc34)nc3c2ncn3C(C)C)cc1` (stereo not given) displayed an IC50 of 2000 nM. As to `CC(C)n1cnc2c(NCCCc3ccccc3)nc(N(CCO)CCO)nc21`, the IC50 was 5000 nM. This IC50 is about 2.5-fold higher than that of the molecule before. Turning to `COC(=O)c1ccc(CNc2nc(Cl)nc3[nH]cnc23)cc1`, the 50% inhibitory concentration (IC50) was > 5000 nM. `COc1ccc(CNc2nc(NCc3cccnc3)nc3c2ncn3C(C)C)cc1` returned a 50% inhibitory concentration (IC50) of 1000 nM. Take `COc1ccc(CNc2nc(NCC(CO)CCO)nc3c2ncn3C(C)C)cc1` (stereo not given): the IC50 is > 5000 nM. With `CC(C)n1cnc2c(NCc3ccc(-c4ccccc4)cc3)nc(NCCO)nc21` the figure was 3000 nM; with `Clc1nc(NCc2ccncc2)c2ncn(C3CCCC3)c2n1`, > 5000 nM; with `COc1ccc(CNc2nc(NCC(O)CN)nc3c2ncn3C(C)C)cc1` (stereo not given), 1000 nM. Molecule `COc1ccc(CNc2nc(N)nc3c2ncn3C(C)C)cc1` registered an IC50 of 1000 nM. For `CNc1ccccc1C1CCCN1c1nc(NCc2ccc(OC)cc2)c2ncn(C(C)C)c2n1` (stereo not given) the value was > 5000 nM; for `CC(C)n1cnc2c(NCc3ccc(-c4ccccc4)cc3)nc(N(C)c3ccco3)nc21`, > 5000 nM; for `CC(C)Cn1cnc2c(NCc3cccnc3)nc(Cl)nc21`, > 5000 nM. In the case of `CC(C)n1cnc2c(NCC3CC3)nc(N(CCO)CCO)nc21`, the half-maximal inhibitory concentration (IC50) amounted to 2000 nM.
